Mutagenic call data for 4 compounds are collected here from PubChem BioAssay AID1259407 (Chemical Carcinogenesis Research Information System (CCRIS), 2018).

The data set deals with CCRIS mutagenicity, Ames/micronucleus/aberration tests. Description: CCRIS mutagenicity studies.
[1] abbreviates: Test System: AMES SALMONELLA TYPHIMURIUM, Strain/Indicator: TA98, Metabolic Activation: NONE, Method: STANDARD PLATE.
The mark [2] stands for this setting: Test System: AMES SALMONELLA TYPHIMURIUM, Strain/Indicator: TA100, Metabolic Activation: NONE, Method: STANDARD PLATE.
The mark [3] stands for this setting: Test System: AMES SALMONELLA TYPHIMURIUM, Strain/Indicator: TA102, Metabolic Activation: NONE, Method: STANDARD PLATE.

Active and inactive are the calls of the source. How the calls were made is not given here.

`CCCCCCCCCc1ccccc1Oc1ccccc1CCCCCCCCC`: the mutagenic call was “inactive; negative” (Test System: AMES SALMONELLA TYPHIMURIUM, Strain/Indicator: TA97, Metabolic Activation: NONE, Method: STANDARD PLATE); “inactive; negative” (Test System: AMES SALMONELLA TYPHIMURIUM, Strain/Indicator: TA97, Metabolic Activation: S-9, Method: STANDARD PLATE); “inactive; negative” under setting [1]; “inactive; negative” (Test System: AMES SALMONELLA TYPHIMURIUM, Strain/Indicator: TA98, Metabolic Activation: S-9, Method: STANDARD PLATE); “inactive; negative” under setting [2]; “inactive; negative” (Test System: AMES SALMONELLA TYPHIMURIUM, Strain/Indicator: TA100, Metabolic Activation: S-9, Method: STANDARD PLATE). Besides, the mutagenic call by setting is: under setting [3], “inactive; negative”; (Test System: AMES SALMONELLA TYPHIMURIUM, Strain/Indicator: TA102, Metabolic Activation: S-9, Method: STANDARD PLATE) “inactive; negative”; (Test System: E.COLI, Strain/Indicator: WP2 (PKM101), Metabolic Activation: NONE, Method: STANDARD PLATE) “inactive; negative”; (Test System: E.COLI, Strain/Indicator: WP2 (PKM101), Metabolic Activation: S-9, Method: STANDARD PLATE) “inactive; negative”.
As to `Oc1cc2c3c(cc4cccc5ccc1c3c54)-c1ccccc1-2`, the mutagenic call (Test System: AMES SALMONELLA TYPHIMURIUM, Strain/Indicator: TA100, Metabolic Activation: RAT, LIVER, S-9, AROCLOR 1254, Method: STANDARD PLATE) was “inactive; negative”.
With `[O-][n+]1c2ccccc2c2ccc3cccc4ccc1c2c34`, the mutagenic call was “inactive; negative” (Test System: AMES SALMONELLA TYPHIMURIUM, Strain/Indicator: TA98, Metabolic Activation: NONE); “active; positive” (Test System: AMES SALMONELLA TYPHIMURIUM, Strain/Indicator: TA98, Metabolic Activation: S-9); “inactive; negative” (Test System: AMES SALMONELLA TYPHIMURIUM, Strain/Indicator: TA100, Metabolic Activation: NONE); “active; positive” (Test System: AMES SALMONELLA TYPHIMURIUM, Strain/Indicator: TA100, Metabolic Activation: S-9).
Consider `[Cl][Pt-2]([Cl])([Cl])([Cl])([Cl])[Cl]`, for which the mutagenic call reads like this: (Test System: AMES SALMONELLA TYPHIMURIUM, Strain/Indicator: TA97A, Metabolic Activation: RAT, LIVER, S-9, PHENOBARBITAL AND 5,6-BENZOFLAVONE, Method: STANDARD PLATE) “active; positive”; (Test System: AMES SALMONELLA TYPHIMURIUM, Strain/Indicator: TA97A, Metabolic Activation: RAT, LIVER, S-9, PHENOBARBITAL AND BETA-NAPHTHOFLAVONE, Method: STANDARD PLATE) “active; positive”; (Test System: AMES SALMONELLA TYPHIMURIUM, Strain/Indicator: TA98, Metabolic Activation: NONE, Method: PREINCUBATION) “inactive; negative”; under setting [1], “active; positive”; (Test System: AMES SALMONELLA TYPHIMURIUM, Strain/Indicator: TA98, Metabolic Activation: RAT, LIVER, S-9, AROCLOR 1254, Method: PREINCUBATION) “active; positive”; (Test System: AMES SALMONELLA TYPHIMURIUM, Strain/Indicator: TA98, Metabolic Activation: RAT, LIVER, S-9, PHENOBARBITAL AND 5,6-BENZOFLAVONE, Method: STANDARD PLATE) “active; positive”. Moreover, the mutagenic call by setting is: (Test System: AMES SALMONELLA TYPHIMURIUM, Strain/Indicator: TA98, Metabolic Activation: RAT, LIVER, S-9, PHENOBARBITAL AND BETA-NAPHTHOFLAVONE, Method: STANDARD PLATE) “active; positive”; (Test System: AMES SALMONELLA TYPHIMURIUM, Strain/Indicator: TA100, Metabolic Activation: NONE, Method: PREINCUBATION) “inactive; negative”; under setting [2], “active; positive”; (Test System: AMES SALMONELLA TYPHIMURIUM, Strain/Indicator: TA100, Metabolic Activation: RAT, LIVER, S-9, AROCLOR 1254, Method: PREINCUBATION) “inactive; negative”; (Test System: AMES SALMONELLA TYPHIMURIUM, Strain/Indicator: TA100, Metabolic Activation: RAT, LIVER, S-9, PHENOBARBITAL AND 5,6-BENZOFLAVONE, Method: STANDARD PLATE) “active; positive”; (Test System: AMES SALMONELLA TYPHIMURIUM, Strain/Indicator: TA100, Metabolic Activation: RAT, LIVER, S-9, PHENOBARBITAL AND BETA-NAPHTHOFLAVONE, Method: STANDARD PLATE) “active; positive”. Besides, the mutagenic call reads like this: under setting [3], “active; positive”; (Test System: AMES SALMONELLA TYPHIMURIUM, Strain/Indicator: TA102, Metabolic Activation: RAT, LIVER, S-9, PHENOBARBITAL AND 5,6-BENZOFLAVONE, Method: STANDARD PLATE) “active; positive”; (Test System: AMES SALMONELLA TYPHIMURIUM, Strain/Indicator: TA102, Metabolic Activation: RAT, LIVER, S-9, PHENOBARBITAL AND BETA-NAPHTHOFLAVONE, Method: STANDARD PLATE) “active; positive”.
